Measurements: patent publication US20060116343A1, “Sphingosine kinase-1 mediates gene expression regulation of a monocyte chemoattractant protein-1 gene” (priority 2004, published 2006)

Legend:
Assay type in all cases: cell-based, human
[1] = system: MCP-1 protein secretion from HMVECs; assay: MCP-1 ELISA of HMVEC supernatant; settings: 24 hours; for MCP-1 protein secretion in response to stimulus (ELISA): thrombin 100 nM or varying concentrations of PAR-activating peptides; for effect of inhibitor pretreatment on induced MCP-1 protein secretion: DMS 10 μM, Bay11-7092 10 μM, GF109203x 1 μM, PD98059 10 μM, stimulation with Thrombin 100 nM, PAR-1-AP 100 nM or (Thrombin 0.1 ng/ml)
Method: HMVECs were placed into culture and stimulated with Thrombin (100 nM) or varying concentrations of PAR-activating peptides. 24 hours later, we used ELISA to detect secretion of MCP-1 into supernatant.
MCP-1 ELISA—HMVECs were placed into culture in 96-well dishes (2×10^3 cells/well) and grown for 24 hours in complete growth media. Cells were transfected with control non-silencing siRNA or siRNAs for hSK1 or hSK2 in serum-free Opti-MEM (Gibco) for 4 hours. Cells were then allowed to grow for 24 hours in media containing 10% FBS, after which the cells were serum starved in 0.5% FBS media overnight. Cells were subsequently stimulated with fresh 0.5% FBS containing media and incubated under various experimental conditions for an additional 24 hours. Where indicated, cells were pre-incubated with specific compound inhibitors, for 20 minutes, prior to stimulation. Supernatants were collected and analyzed by ELISA (Cell Sciences).
HMVECs were transfected with siRNAs (1.6 μg), hSK1-specific, hSK2-specific or control non-silencing siRNAs. After 48 hours, cells were stimulated with Thrombin (100 nM), PAR-1-AP (300 μM) or PAR-4-AP (600 μM). ELISA was performed to detect MCP-1 secretion into cell supernatant. […] Furthermore, basal levels of MCP-1 protein secretion appeared to be effected as well, as the level of MCP-1 protein secretion in cells that were unstimulated or stimulated with PAR-4-AP was decreased from cells transfected with hSK1 specific siRNA.
HMVECs were placed into culture overnight, and pretreated with inhibitors to hSK (DMS 10 μM), NF-κB (Bay11-7092 10 μM), PKC (GF109203x 1 μM), or Erk (PD98059 10 μM) prior to stimulation with Thrombin (100 nM), PAR-1-AP (TFLLRN 100 nM), or (Thrombin 0.1 ng/ml). ELISAs were performed 24 hours after stimulation to measure the amount of MCP-1 secretion. […] Furthermore we observed that NF-κB activity is a prerequisite for MCP-1 expression as well, as pretreatment with the NF-κB inhibitor, Bay11-7092, abrogated the induction of MCP-1 protein secretion by all agonists.
HMVECs were placed into culture overnight, and pretreated with inhibitors to hSK (DMS 10 μM), NF-κB (Bay11-7092 10 μM), PKC (GF109203×1 μM), or Erk (PD98059 10 μM) prior to stimulation with 5 μM S1P. ELISAs were performed to detect the levels of secreted MCP-1 protein. […] There was no elevation of MCP-1 protein by the external addition of S1P. Therefore, we rule out a role for S1P receptors in the hSK-dependent release of MCP-1 from HMVECs.

[2] = system: MCP-1 gene expression in HMVECs; assay: cDNA microarray analysis of gene expression in stimulated HMVECs; settings: four hours; for MCP-1 gene expression in response to stimulus (microarray): thrombin 100 nM or TNF-α 20 ng/ml
Method: In an effort to rapidly assess the potential overall role of SK1 in endothelial cell function, a cDNA microarray analyses was performed in HMVEC in the absence and presence of the SK1 inhibitor DMS. The cells were stimulated through two receptor subtypes: G-protein coupled receptors, for which the Protease Activate Receptor (PAR) family was utilized with thrombin as the agonist and cytokine receptors with TNF-α as the agonist
Cell Culture—Adult human microvascular endothelial cells (HMVECs) (Cambrex) were cultured in EGM complete media (Cambrex). Cells were used between the third and sixth passages for all studies.
Microarray Study—Adult human microvascular endothelial cells (HMVECs) (Cambrex) were placed into culture (5% FBS) and stimulated with thrombin (100 nM) or TNF-α (20 ng/ml) in the absence or presence of DMS (10 μM), a potent inhibitor of sphingosine kinase. After four hours of stimulation, RNA was isolated (Tri-Reagent, Bio-Mol), DNAse treated and cleaned using the RNeasy maxi kit (Qiagen). Upon validation of RNA purity using the Agilent 2100 Bioanalyzer, RNA was then subjected to cDNA microarray analyses.
A cDNA microarray containing 3563 cDNA clones was used in this study. In the gene expression studies two types of replications were used, biological and technical. Duplicate biological samples were harvested for each experimental condition for the initial microarray analyses. Additionally technical replication was employed as all samples were run in triplicate on separate microarrays. The microarray data from each sample were subjected to outlier removal based on technical replication and normalization based on both the technical and biological replication. The normalization consisted of an initial normalization between hybridization replicates within a single sample, followed by a secondary normalization across all samples within the study (Shaw et al., J Mol Microbiol Biotechnol, 2003, 5:105-122). […] After cleanup and subsequent normalizations, a single ratio was calculated for each treatment to its assigned control. […]

[3] = system: MCP-1 transcripts in HMVECs; assay: Quantitative RT-PCR of MCP-1 transcripts in stimulated HMVECs; settings: thrombin 100 nM
Excerpt: In the presence of hSK1-specific siRNAs, induction of MCP-1 was inhibited whereas in the presence of hSK2-specific or control non-silencing siRNAs, MCP-1 induction was not affected.
Evaluation of siRNA Transfection Efficiency and Silencing Capabilities—Small interfering RNAs (siRNAs) were designed and synthesized to target either sequences for hSK1, SEQ ID NO: 1 ([…]) or hSK2, SEQ ID NO:2 ([…]) transcripts as well as control non-silencing siRNA, SEQ ID NO:3 ([…]), which has no sequence target in the human genome (Qiagen). The oligonucleotides were fluorescein-conjugated on the 3′ end of the sense strand, which facilitated visualization of transfection efficiency by fluorescence confocal microscopy (LSM 510, Zeiss). […] For experimental studies RNA were isolated, DNAse treated and subjected to quantitative RT-PCR analyses to detect transcript levels of hSK1, hSK2, MCP-1 and control 18S transcripts using predesigned primers from Applied Biosystems. […]
Quantitative RT-PCR—HMVECs were placed into culture overnight and stimulated with thrombin (100 nM) after which RNA was isolated and DNAse treated. TaqMan® quantitative RT-PCRs were performed in triplicate as validation of microarray analyses according to manufacturers instructions (Applied Biosystems). The quantity mean for each detector was normalized to that of the 18S detector.

CCCCCCCCCCCCC/C=C/[C@@H](O)[C@@H](N)COP(=O)(O)O [S1P, Sphingosine-1-phosphate]
MCP-1 protein secretion after external addition of S1P ([1]; HMVECs, 5 μM S1P): no elevation

TFLLRN [PAR-1-AP]
MCP-1 protein secretion in response to stimulus (ELISA) ([1]; HMVECs): stimulated secretion of MCP-1

CCCCCCCCCCCCC/C=C/[C@@H](O)[C@H](CO)N(C)C [DMS, dimethylsphingosine]
effect on thrombin- or PAR-1 agonist peptide-stimulated secretion of MCP-1 protein ([1]; HMVECs pretreated with DMS prior to stimulation): inhibited secretion of MCP-1 protein | effect of inhibitor pretreatment on induced MCP-1 protein secretion ([1]; HMVECs): hSK activity is required | effect on thrombin- and TNF-α-induced MCP-1 gene expression (microarray) ([2]; DMS 10 μM added prior to stimulation with thrombin 100 nM or TNF-α 20 ng/ml): inhibited

TNF-α
MCP-1 gene expression in response to stimulus (microarray) [2]: induced

CN(C)CCCn1cc(C2=C(c3c[nH]c4ccccc34)C(=O)NC2=O)c2ccccc21 [GF109203x]
effect of inhibitor pretreatment on induced MCP-1 protein secretion ([1]; HMVECs): intermediate effect

COc1cccc(-c2cc(=O)c3ccccc3o2)c1N [PD98059]
effect of inhibitor pretreatment on induced MCP-1 protein secretion ([1]; HMVECs): no effect

thrombin
MCP-1 transcripts in response to stimulus (quantitative RT-PCR) [3]: induction of MCP-1 transcripts | MCP-1 protein secretion in response to stimulus (ELISA) ([1]; HMVECs): augmented | MCP-1 gene expression in response to stimulus (microarray) [2]: induced
